Assay results: PubChem BioAssay AID504687 (Sanford-Burnham Center for Chemical Genomics, 2011)
Active and inactive are the calls of the source. How the calls were made is not given here.

Target: Ubiquitin-conjugating enzyme E2 N (Homo sapiens) (UniProt P61088)
Test: analogue potency against UBC13 ubiquitin chains – biochemical, TR-FRET, SAR follow-up (AID 504687)
Conditions: UBC13 polyubiquitin formation

Chain of Ubiquitin-conjugating enzyme E2 N (Homo sapiens) (P61088 whole entry, looked up): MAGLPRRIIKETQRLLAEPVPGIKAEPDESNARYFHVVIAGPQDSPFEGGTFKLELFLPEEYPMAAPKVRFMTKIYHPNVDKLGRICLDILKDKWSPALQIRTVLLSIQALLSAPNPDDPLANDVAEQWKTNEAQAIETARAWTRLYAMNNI

Row | Compound | IC50
1 | CCC1CCCCN1CCCNC(=O)C1CCN(c2ncnc3c2nc2n3CCCCC2)CC1 (stereo unspecified) | 7.28 µM
2 | CCN(Cc1ccccc1)S(=O)(=O)c1ccc(C(=O)N(CCCN(C)C)c2nc3cc4c(cc3s2)OCO4)cc1 | 4.47 µM
3 | O=C(C1COc2ccccc2O1)N1CCN(CCN2C(=O)c3cccc4cccc(c34)C2=O)CC1 (stereo unspecified) | > 100 µM (inactive)
4 | Cc1cc(NS(=O)(=O)c2ccc(NC(=O)CCCCCN3C(=O)c4ccccc4C3=O)cc2)nc(C)n1 | > 100 µM (inactive)
5 | COc1ccc2sc(N(CCCN(C)C)C(=O)c3ccc(S(=O)(=O)N(C)Cc4ccccc4)cc3)nc2c1 | 5.89 µM
6 | Cc1ccccc1CN1CCC(CNC(=O)C2CCCN(c3ncnc4c3nc3n4CCCCC3)C2)CC1 (stereo unspecified) | 4.69 µM
7 | CN(C)CCCN(C(=O)c1ccc(S(=O)(=O)N2CCc3ccccc3C2)cc1)c1nc2ccc(F)cc2s1 | 8.1 µM
8 | Cc1nc2ccccc2c(=O)n1NC(=O)c1ccc(OC(F)F)cc1 | 15 µM
9 | CNCc1cc(Br)c(OCC(=O)Nc2ccccc2OC)c(OC)c1 | 6.37 µM
10 | CC(=O)c1ccccc1OCC(O)CN1CCN(CCN2C(=O)c3cccc4cccc(c34)C2=O)CC1 (stereo unspecified) | 10.5 µM
11 | COc1ccc(C)c2sc(N(CCCN(C)C)C(=O)c3ccc(S(=O)(=O)N(C)C)cc3)nc12 | 8.72 µM
12 | CC1CC(C)CN(C(=O)C2CCN(c3ncnc4c3nc3n4CCCCC3)CC2)C1 (stereo unspecified) | > 100 µM (inactive)
13 | COC(=O)c1ccc(OCC(O)CN2CCN(CCN3C(=O)c4cccc5cccc(c45)C3=O)CC2)cc1 (stereo unspecified) | 4.61 µM
14 | Cc1ccc2nc(N(CCCN(C)C)C(=O)c3ccc4c(c3)CCCC4)sc2c1 | 10.5 µM
15 | CCOc1cccc2sc(N(CCCN(C)C)C(=O)c3ccc(S(=O)(=O)N(C)Cc4ccccc4)cc3)nc12 | 4.3 µM
16 | O=C(CCCCCN1C(=O)c2ccccc2C1=O)NCc1ccccn1 | inactive
17 | COc1ccccc1NC(=S)NC(=O)CCCCCN1C(=O)c2ccccc2C1=O | > 100 µM (inactive)
18 | CCc1ccc(OCC(O)CN2CCC(CN3C(=O)c4cccc5cccc(c45)C3=O)CC2)cc1 (stereo unspecified) | 8.76 µM
19 | O=C(CCCCCN1C(=O)c2cccc3cccc(c23)C1=O)NCc1cccnc1 | 5.08 µM
20 | CC(=O)Nc1ccc(OCC(O)CN2CCN(CCN3C(=O)c4cccc5cccc(c45)C3=O)CC2)cc1 (stereo unspecified) | 17.4 µM
21 | CC1CCCCN1C(=O)C1CCN(c2ncnc3c2nc2n3CCCCC2)CC1 (stereo unspecified) | inactive
22 | Cc1cc(NC(=O)Cn2c(=O)n(CCCCC(=O)NC3CCN(Cc4ccccc4)CC3)c(=O)c3ccccc32)n[nH]1 | 12.9 µM
23 | CC(C)(C)c1ccc(OCC(O)CN2CCN(CCN3C(=O)c4cccc5cccc(c45)C3=O)CC2)cc1 (stereo unspecified) | 9.47 µM
24 | COc1cccc(NC(=O)CCCCCN2C(=O)c3cccc([N+](=O)[O-])c3C2=O)c1 | > 100 µM (inactive)

Further lines, results first:

Row | IC50 | Compound
25 | 3.42 µM | CCCN1CCN(C(=O)C2CCN(c3ncnc4c3nc3n4CCCCC3)CC2)CC1
26 | 2.7 µM | Cc1ccc(-c2oc3ncnc(N)c3c2-c2ccc(C)cc2)cc1
27 | 3.19 µM | CCOc1ccc2nc(N(CCCN(C)C)C(=O)c3ccc(S(=O)(=O)N4CCc5ccccc5C4)cc3)sc2c1
28 | 4.1 µM | CCOc1cccc2sc(N(CCCN(C)C)C(=O)c3ccc(S(=O)(=O)N4CCc5ccccc5C4)cc3)nc12
29 | 2.65 µM | Cc1c(NC(=O)CCCN2C(=O)c3cccc4cccc(c34)C2=O)c(=O)n(-c2ccccc2)n1C
30 | 0.35 µM | O=C(CCCn1c(=O)c2ccccc2n(Cc2ccc(Cl)cc2)c1=O)NC1CCN(Cc2ccccc2)CC1
31 | 0.47 µM | O=C(CCCCCN1C(=O)c2ccccc2C1=O)Nc1ccc(S(=O)(=O)N2CCCCC2)cc1
32 | 1.35 µM | O=C1c2cccc3cccc(c23)C(=O)N1CCN1CCN(CC(O)COc2ccc3ccccc3c2)CC1 (stereo unspecified)
33 | 0.34 µM | O=C(CCCn1c(=O)c2ccccc2n(Cc2cccc([N+](=O)[O-])c2)c1=O)NC1CCN(Cc2ccccc2)CC1
34 | 3.62 µM | Cc1ccc(NC(=O)C2CCN(c3ncnc4c3nc3n4CCCCC3)CC2)cc1Cl
35 | 1.69 µM | Cc1cccc(C)c1NC(=O)Cn1c(=O)n(CCCC(=O)NC2CCN(Cc3ccccc3)CC2)c(=O)c2ccccc21
36 | 2.53 µM | CN(C)CCCN(C(=O)c1ccc(S(=O)(=O)N(C)Cc2ccccc2)cc1)c1nc2cc3c(cc2s1)OCO3
